Measurements: patent publication US12295937B2, “Psychoactive medicines and their use for treating psychiatric and neurological conditions and disorders” (Transcend Therapeutics, Inc., priority 2021, dated 2025)

Tests used:
[1] = Open field test (OFT); type: in vivo, rat; conditions: 5 or 15 mg/kg IP, 30 minutes before testing
Description: Method: Consecutive beam breaks and/or video-tracking of time spent in the center versus periphery of the open field are measured. Also measured are parameters such as distance traveled and ambulatory activity (horizontal and vertical) for the duration of the test session.
The open field test (OFT) capitalizes on a rodent's innate fear of open spaces to assess anxiety-like behavior. More time spent in the center of an open field reflects an anxiolytic (anti-anxiety) effect.
Locomotor activity was also measured in the OFT.
To investigate whether MBDB has an anti-anxiety (anxiolytic) effect, rats were dosed with MBDB (0.5-30 mg/kg, IP) or vehicle (saline) and 30-minutes later were tested in the open field for 30 minutes. This anxiety test capitalizes on a rodents' innate fear of wide-open spaces and propensity to hug the walls when placed into the open field. Therefore, a drug that increases the time spent in the center of the open field has anxiolytic activity and predicts utility for treating anxiety in humans.

[2] = target: T1, 5HT2C receptor (Homo sapiens, UniProt P28335); assay: GPCRmax screen, agonist mode, 5HT2C; type: cell-based; conditions: 1 or 10 mM
T1 construct: host or cells: PathHunter cell lines
T1 sequence (P28335 33-458): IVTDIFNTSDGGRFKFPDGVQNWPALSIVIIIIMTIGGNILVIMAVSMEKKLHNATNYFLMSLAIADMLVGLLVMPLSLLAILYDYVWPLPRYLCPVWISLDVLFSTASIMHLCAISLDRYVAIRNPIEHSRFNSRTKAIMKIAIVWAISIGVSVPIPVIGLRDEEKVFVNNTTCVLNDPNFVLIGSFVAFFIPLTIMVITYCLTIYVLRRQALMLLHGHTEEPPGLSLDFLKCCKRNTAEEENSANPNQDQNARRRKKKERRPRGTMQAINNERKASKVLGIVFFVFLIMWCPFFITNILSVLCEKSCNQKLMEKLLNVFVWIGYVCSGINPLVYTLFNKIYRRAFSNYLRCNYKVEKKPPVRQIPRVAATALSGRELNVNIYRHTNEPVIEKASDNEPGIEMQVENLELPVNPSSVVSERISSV

[3] = Reserpine-induced fibromyalgia model, vonFrey test; type: in vivo, rat; conditions: 15 mg/kg IP, 30 min before vonFrey test, day 4
Description: In this Example, male Sprague Dawley rats are tested in a behavioral model of FMA based on the protocol from Nakagura et al. (2009) Pain 146:26. This model uses three daily doses of reserpine (1 mg/kg, SC) or 0.5% acetic acid vehicle to reduce pain thresholds (i.e., increase pain perception) in the Von Frey Test (vFT, procedure outlined below).
Von Frey Test (vFT) procedure: Increasing pain thresholds in this test are consistent with a reduction in pain perception. Prior to the start of dosing, rats are tested for their baseline mechanical pain threshold. For von Frey measurements, animals are placed into wire bottom cubicles with opaque Plexiglas walls, allowing access to the underside of their paws. Animals are habituated to this environment for at least 30 minutes before the start of the von Frey filament application. Static allodynia is measured using Semmes-Weinstein von Frey filaments (Stoelting, Wood Dale, IL). Mechanical allodynia is tested by touching the plantar surface of the animals' left and right hind paws with von Frey filaments which deliver a calibrated amount of force. Each von Frey filament is presented perpendicularly to the plantar surface for approximately 6 seconds of constant application in either ascending or descending strength in a modified up-and-down method (Chaplan et al. (1994) J Neurosci. Meth. 53:55). Stimulation is presented at intervals of several seconds, allowing for apparent resolution of any behavioral responses to previous stimuli. A positive response is noted if the paw is sharply withdrawn. Flinching immediately upon removal of the hair is also considered a positive response. Ambulation is considered an ambiguous response, and, in such cases, the stimulus is repeated.
VonFrey measurements: Animals were placed into wire bottom cubicles with opaque Plexiglas walls, allowing access to the underside of their paws. […] Static allodynia was measured using Semmes-Weinstein von Frey filaments (Stoelting, Wood Dale, IL). […] The average hindpaw thresholds were determined 60-min post-injection. […]

[4] = Rat plasma pharmacokinetics by administration route; type: in vivo; conditions: male, SD
Description: Plasma was collected 0.25, 0.5, 1-, 2-, 4-, and 8-hours post-dose.

[5] = target: vesicular monoamine transporter 2 (VMAT2) (Homo sapiens, UniProt Q05940); conditions: cited from earlier work
vesicular monoamine transporter 2 (VMAT2), sequence (Q05940 whole entry, species assumed): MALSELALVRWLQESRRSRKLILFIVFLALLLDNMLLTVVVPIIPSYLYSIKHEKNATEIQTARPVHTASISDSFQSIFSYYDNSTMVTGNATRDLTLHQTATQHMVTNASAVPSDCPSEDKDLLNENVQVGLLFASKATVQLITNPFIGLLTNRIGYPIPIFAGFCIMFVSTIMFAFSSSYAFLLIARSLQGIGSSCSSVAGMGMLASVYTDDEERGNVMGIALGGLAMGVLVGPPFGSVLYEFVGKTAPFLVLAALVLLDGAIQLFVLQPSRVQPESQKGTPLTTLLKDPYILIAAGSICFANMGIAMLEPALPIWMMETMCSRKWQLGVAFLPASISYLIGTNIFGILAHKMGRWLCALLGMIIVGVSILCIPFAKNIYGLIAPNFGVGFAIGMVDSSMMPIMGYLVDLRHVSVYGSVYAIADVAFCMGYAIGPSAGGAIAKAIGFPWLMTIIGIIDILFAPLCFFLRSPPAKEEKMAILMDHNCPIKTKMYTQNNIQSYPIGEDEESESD

[6] = target: 168 GPCRs (Homo sapiens, UniProt Q16602); assay: β-arrestin GPCR screen (PathHunter / GPCRmax), agonist mode; type: cell-based; parameters: host or cells: PathHunter cell lines; conditions: CALCRL-RAMP3, 1 uM
168 GPCRs (Homo sapiens, UniProt Q16602), sequence (Q16602 23-461): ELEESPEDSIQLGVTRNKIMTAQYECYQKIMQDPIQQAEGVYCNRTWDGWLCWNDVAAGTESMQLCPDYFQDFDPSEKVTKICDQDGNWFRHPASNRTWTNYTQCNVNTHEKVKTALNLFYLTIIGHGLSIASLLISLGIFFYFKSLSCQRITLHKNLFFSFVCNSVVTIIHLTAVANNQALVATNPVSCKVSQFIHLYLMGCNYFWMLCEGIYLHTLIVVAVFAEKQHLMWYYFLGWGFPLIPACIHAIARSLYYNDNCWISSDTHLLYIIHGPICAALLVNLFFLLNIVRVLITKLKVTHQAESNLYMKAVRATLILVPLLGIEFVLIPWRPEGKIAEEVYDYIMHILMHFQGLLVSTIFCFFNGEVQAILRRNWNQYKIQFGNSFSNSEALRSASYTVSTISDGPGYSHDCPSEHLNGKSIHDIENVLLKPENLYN
Description: For agonist determination, cells were incubated with sample to induce response. […] Vehicle concentration was 1%.

[7] = target: SERT (Rattus norvegicus, UniProt P31652); assay: [3H]5-HT uptake inhibition in rat brain synaptosomes; conditions: read-out: Reuptake inhibition: IC50; rat brain synaptosomes
SERT, sequence (P31652 whole entry): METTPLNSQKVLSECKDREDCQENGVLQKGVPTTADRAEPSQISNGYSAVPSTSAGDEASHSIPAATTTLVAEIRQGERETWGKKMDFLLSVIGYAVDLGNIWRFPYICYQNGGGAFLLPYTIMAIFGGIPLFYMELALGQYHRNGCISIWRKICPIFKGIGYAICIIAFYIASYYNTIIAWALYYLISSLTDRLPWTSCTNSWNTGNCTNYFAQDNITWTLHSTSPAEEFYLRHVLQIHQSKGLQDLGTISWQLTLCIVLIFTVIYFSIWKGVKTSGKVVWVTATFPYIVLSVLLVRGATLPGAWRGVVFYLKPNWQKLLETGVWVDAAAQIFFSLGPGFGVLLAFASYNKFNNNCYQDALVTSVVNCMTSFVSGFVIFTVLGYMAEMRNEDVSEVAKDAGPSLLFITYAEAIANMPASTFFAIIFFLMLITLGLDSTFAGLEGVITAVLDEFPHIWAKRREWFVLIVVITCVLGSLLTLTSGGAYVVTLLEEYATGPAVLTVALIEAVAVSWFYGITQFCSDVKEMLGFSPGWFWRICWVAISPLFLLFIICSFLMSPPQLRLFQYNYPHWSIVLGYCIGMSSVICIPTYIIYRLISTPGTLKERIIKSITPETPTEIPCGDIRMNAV

[8] = target: 168 GPCRs (Homo sapiens, UniProt P43088); assay: β-arrestin GPCR screen (PathHunter / GPCRmax), antagonist mode; conditions: PTGFR, Antagonist mode, 10 uM
168 GPCRs (Homo sapiens, UniProt P43088), sequence (P43088 whole entry): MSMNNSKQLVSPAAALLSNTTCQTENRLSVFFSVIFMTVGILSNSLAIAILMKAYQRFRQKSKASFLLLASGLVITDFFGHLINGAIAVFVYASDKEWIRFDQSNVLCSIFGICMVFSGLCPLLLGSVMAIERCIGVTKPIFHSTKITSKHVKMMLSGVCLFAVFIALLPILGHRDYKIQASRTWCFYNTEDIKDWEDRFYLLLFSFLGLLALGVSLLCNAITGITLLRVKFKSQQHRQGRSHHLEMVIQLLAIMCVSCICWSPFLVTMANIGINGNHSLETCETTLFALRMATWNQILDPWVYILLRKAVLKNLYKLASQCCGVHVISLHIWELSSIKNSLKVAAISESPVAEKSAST

[9] = target: 168 GPCRs (Homo sapiens, UniProt Q16581); assay: as above; conditions: C3AR1, Antagonist mode, 10 uM
168 GPCRs (Homo sapiens, UniProt Q16581), sequence (Q16581 whole entry): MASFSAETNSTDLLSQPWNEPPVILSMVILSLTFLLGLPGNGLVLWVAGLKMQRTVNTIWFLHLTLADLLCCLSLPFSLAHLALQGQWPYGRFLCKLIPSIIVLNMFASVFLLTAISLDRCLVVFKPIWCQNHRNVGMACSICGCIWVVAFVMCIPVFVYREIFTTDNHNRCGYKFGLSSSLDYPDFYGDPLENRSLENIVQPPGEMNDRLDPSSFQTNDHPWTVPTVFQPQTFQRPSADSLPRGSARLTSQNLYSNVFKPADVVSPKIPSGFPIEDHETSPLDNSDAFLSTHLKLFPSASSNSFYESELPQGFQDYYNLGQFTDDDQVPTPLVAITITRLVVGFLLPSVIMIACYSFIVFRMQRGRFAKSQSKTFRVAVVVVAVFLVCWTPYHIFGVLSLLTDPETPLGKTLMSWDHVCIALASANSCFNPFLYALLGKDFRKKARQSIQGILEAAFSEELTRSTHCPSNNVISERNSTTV

## CNC(C)C(=O)c1ccc2c(c1)OCO2 (centres unmarked) [Methylone, 3,4-methylenedioxy-N-methylcathinone]
[1]
  Time spent in the center of the open field vs. vehicle: significantly increases the time spent in the center of the open field
[2]
  Agonist % activity: no agonist or antagonist activity
[3]
  Paw withdrawal thresholds: significantly increased paw withdrawal thresholds
[4]; IM 15 mg/kg
  AUC(0-inf): 4610 ng·h/mL
  Cmax: 5400 ng/mL
  half-life: 44.4 min
[4]; IM 20 mg/kg
  AUC(0-inf): 6370 ng·h/mL
  Cmax: 5920 ng/mL
  half-life: 42 min
[4]; IP 15 mg/kg
  AUC(0-inf): 2590 ng·h/mL
  Cmax: 1250 ng/mL
  half-life: 56.1 min
[4]; PO 15 mg/kg
  AUC(0-inf): 2290 ng·h/mL
  Cmax: 552 ng/mL
  half-life: 136 min
[4]; SC 15 mg/kg
  AUC(0-inf): 4330 ng·h/mL
  Cmax: 3650 ng/mL
  half-life: 49.2 min
[4]; SC 20 mg/kg
  AUC(0-inf): 5960 ng·h/mL
  Cmax: 4320 ng/mL
  half-life: 52.2 min
[5]
  Affinity for VMAT2, times lower than that of MDMA: about 13 ×
[6]
  % Activity: −2.2%
[7]
  IC50: 430 nM
[8]
  % Activity: 0%
[9]
  % Activity: 0.3%
